{"source": "ChEMBL document CHEMBL1201862", "about": "“PubChem BioAssay data set” (2004)", "test_in_all_cases": "inhibition of tumour cell growth, NCI panel, 48 h", "key": {"UACC-257": {"system": "UACC-257"}, "SF-539": {"system": "SF-539"}, "DU-145": {"system": "DU-145"}, "HOP-62": {"system": "HOP-62"}, "A498": {"system": "A498"}, "SK-MEL-5": {"system": "SK-MEL-5"}, "T47D": {"system": "T47D"}, "SN12C": {"system": "SN12C"}, "OVCAR-5": {"system": "OVCAR-5"}, "HCT-15": {"system": "HCT-15"}, "HT-29": {"system": "HT-29"}, "COLO 205": {"system": "COLO 205"}, "HL-60": {"system": "HL-60"}, "RPMI-8226": {"system": "RPMI-8226"}, "IGROV-1": {"system": "IGROV-1"}, "HCT-116": {"system": "HCT-116"}, "MCF7": {"system": "MCF7"}, "SNB-19": {"system": "SNB-19"}, "Malme-3M": {"system": "Malme-3M"}, "RXF 393": {"system": "RXF 393"}, "NCI-H522": {"system": "NCI-H522"}, "KM12": {"system": "KM12"}, "NCI-H460": {"system": "NCI-H460"}, "HCC 2998": {"system": "HCC 2998"}, "OVCAR-4": {"system": "OVCAR-4"}, "U-251": {"system": "U-251"}, "CAKI-1": {"system": "CAKI-1"}, "M14": {"system": "M14"}, "SNB-75": {"system": "SNB-75"}, "MDA-MB-231": {"system": "MDA-MB-231"}, "EKVX": {"system": "EKVX"}, "SK-MEL-2": {"system": "SK-MEL-2"}, "SK-MEL-28": {"system": "SK-MEL-28"}, "SW-620": {"system": "SW-620"}, "SK-OV-3": {"system": "SK-OV-3"}, "A549": {"system": "A549"}, "NCI-H226": {"system": "NCI-H226"}, "BT-549": {"system": "BT-549"}, "TK-10": {"system": "TK-10"}, "MOLT-4": {"system": "MOLT-4"}, "NCI-H23": {"system": "NCI-H23"}, "K562": {"system": "K562"}, "UACC-62": {"system": "UACC-62"}, "MDA-MB-435": {"system": "MDA-MB-435"}, "LOX IMVI": {"system": "LOX IMVI"}, "SF-268": {"system": "SF-268"}, "OVCAR-8": {"system": "OVCAR-8"}, "OVCAR-3": {"system": "OVCAR-3"}, "Hs-578T": {"system": "Hs-578T"}, "NCI/ADR-RES": {"system": "NCI/ADR-RES"}, "PC-3": {"system": "PC-3"}, "UO-31": {"system": "UO-31"}, "SF-295": {"system": "SF-295"}, "ACHN": {"system": "ACHN"}, "HOP-92": {"system": "HOP-92"}, "786-0": {"system": "786-0"}}, "note": "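Growth conditions: 96-well plates. Treatment: test compound, 48 hours, 5 concentrations. Analysis: linear interpolation between bracketing concentrations; unreached endpoints set to highest concentration. At the GI50, growth is halved.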 Calls of active or inactive are those of the source. Cut-off read from the data, not from the text of the source: active = GI50 up to about 1.1 µM and inactive = higher.", "data": [{"molecule": "Cc1ccccc1OC(C)C(=O)NN1C(=O)CC(=O)N(c2ccccc2)C1=S", "note": "(stereo unspecified)", "values": [{"measurement": "GI50", "setting": "UACC-257", "result": "58.3 µM (inactive)"}, {"measurement": "GI50", "setting": "SF-539", "result": "> 100 µM (inactive)"}, {"measurement": "GI50", "setting": "DU-145", "result": "51.1 µM (inactive)"}, {"measurement": "GI50", "setting": "HOP-62", "result": "69.2 µM (inactive)"}, {"measurement": "GI50", "setting": "A498", "result": "36 µM (inactive)"}, {"measurement": "GI50", "setting": "SK-MEL-5", "result": "60.3 µM (inactive)"}, {"measurement": "GI50", "setting": "T47D", "result": "35.3 µM (inactive)"}, {"measurement": "GI50", "setting": "SN12C", "result": "43.7 µM (inactive)"}, {"measurement": "GI50", "setting": "OVCAR-5", "result": "> 100 µM (inactive)"}, {"measurement": "GI50", "setting": "HCT-15", "result": 51.3, "unit": "µM"}, {"measurement": "GI50", "setting": "HT-29", "result": "76 µM (inactive)"}, {"measurement": "GI50", "setting": "COLO 205", "result": "68.4 µM (inactive)"}, {"measurement": "GI50", "setting": "HL-60", "result": "10.4 µM (inactive)"}, {"measurement": "GI50", "setting": "RPMI-8226", "result": "43.3 µM (inactive)"}, {"measurement": "GI50", "setting": "IGROV-1", "result": "80.4 µM (inactive)"}, {"measurement": "GI50", "setting": "HCT-116", "result": "33.4 µM (inactive)"}, {"measurement": "GI50", "setting": "MCF7", "result": "42.3 µM (inactive)"}, {"measurement": "GI50", "setting": "SNB-19", "result": "24 µM (inactive)"}, {"measurement": "GI50", "setting": "Malme-3M", "result": "> 100 µM (inactive)"}, {"measurement": "GI50", "setting": "RXF 393", "result": "61.4 µM (inactive)"}, {"measurement": "GI50", "setting": "NCI-H522", "result": "77.4 µM (inactive)"}, {"measurement": "GI50", "setting": "KM12", "result": "75.5 µM (inactive)"}, {"measurement": "GI50", "setting": "NCI-H460", "result": "45.8 µM (inactive)"}, {"measurement": "GI50", "setting": "HCC 2998", "result": "70.8 µM (inactive)"}, {"measurement": "GI50", "setting": "OVCAR-4", "result": "> 100 µM (inactive)"}, {"measurement": "GI50", "setting": "U-251", "result": "62.7 µM (inactive)"}, {"measurement": "GI50", "setting": "CAKI-1", "result": "> 100 µM (inactive)"}, {"measurement": "GI50", "setting": "M14", "result": "52 µM (inactive)"}, {"measurement": "GI50", "setting": "SNB-75", "result": "48.3 µM (inactive)"}, {"measurement": "GI50", "setting": "MDA-MB-231", "result": "> 100 µM (inactive)"}, {"measurement": "GI50", "setting": "EKVX", "result": "75.7 µM (inactive)"}, {"measurement": "GI50", "setting": "SK-MEL-2", "result": "72.9 µM (inactive)"}, {"measurement": "GI50", "setting": "SK-MEL-28", "result": "> 100 µM (inactive)"}, {"measurement": "GI50", "setting": "SW-620", "result": "78.3 µM (inactive)"}, {"measurement": "GI50", "setting": "SK-OV-3", "result": "> 100 µM (inactive)"}, {"measurement": "GI50", "setting": "A549", "result": "29.1 µM (inactive)"}, {"measurement": "GI50", "setting": "NCI-H226", "result": "41.9 µM (inactive)"}, {"measurement": "GI50", "setting": "BT-549", "result": "> 100 µM (inactive)"}, {"measurement": "GI50", "setting": "TK-10", "result": "63 µM (inactive)"}, {"measurement": "GI50", "setting": "MOLT-4", "result": "34 µM (inactive)"}, {"measurement": "GI50", "setting": "NCI-H23", "result": "88.1 µM (inactive)"}, {"measurement": "GI50", "setting": "K562", "result": "41.4 µM (inactive)"}, {"measurement": "GI50", "setting": "UACC-62", "result": "54.1 µM (inactive)"}, {"measurement": "GI50", "setting": "MDA-MB-435", "result": "73.1 µM (inactive)"}, {"measurement": "GI50", "setting": "LOX IMVI", "result": "54.3 µM (inactive)"}, {"measurement": "GI50", "setting": "SF-268", "result": "76.6 µM (inactive)"}, {"measurement": "GI50", "setting": "OVCAR-8", "result": "56.6 µM (inactive)"}, {"measurement": "GI50", "setting": "OVCAR-3", "result": "53.2 µM (inactive)"}, {"measurement": "GI50", "setting": "Hs-578T", "result": "> 100 µM (inactive)"}, {"measurement": "GI50", "setting": "NCI/ADR-RES", "result": "61 µM (inactive)"}, {"measurement": "GI50", "setting": "PC-3", "result": "72.1 µM (inactive)"}, {"measurement": "GI50", "setting": "UO-31", "result": "35.8 µM (inactive)"}, {"measurement": "GI50", "setting": "SF-295", "result": "46.3 µM (inactive)"}, {"measurement": "GI50", "setting": "ACHN", "result": "53.8 µM (inactive)"}, {"measurement": "GI50", "setting": "HOP-92", "result": "37.3 µM (inactive)"}, {"measurement": "GI50", "setting": "786-0", "result": "82.4 µM (inactive)"}]}]}
